Measurements from ChEMBL document CHEMBL1201862, “PubChem BioAssay data set” (2004).
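Five compound concentrations were applied to cells in 96-well plates for 48 hours; endpoints were derived by simple linear interpolation of the resulting dose-response curve. Here, GI50 denotes the concentration required for 50% inhibition of growth.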 Active and inactive are the calls of the source. Rule as the data show it: active = GI50 up to about 1.1 µM and inactive = higher.

Tests used:
Experiment in all cases: inhibition of tumour cell growth, NCI panel, 48 h
[1] = tested on: 786-0
[2] = tested on: A498
[3] = tested on: A549
[4] = tested on: ACHN
[5] = tested on: BT-549
[6] = tested on: CCRF-CEM
[7] = tested on: COLO 205
[8] = tested on: DU-145
[9] = tested on: HCC 2998
[10] = tested on: HCT-116
[11] = tested on: HCT-15
[12] = tested on: HL-60
[13] = tested on: HOP-62
[14] = tested on: HOP-92
[15] = tested on: HT-29
[16] = tested on: Hs-578T
[17] = tested on: IGROV-1
[18] = tested on: K562
[19] = tested on: LOX IMVI
[20] = tested on: M14
[21] = tested on: MCF7
[22] = tested on: MDA-MB-231
[23] = tested on: MDA-MB-435
[24] = tested on: MDA-N
[25] = tested on: Malme-3M
[26] = tested on: NCI-H226
[27] = tested on: NCI-H23
[28] = tested on: NCI-H460
[29] = tested on: NCI-H522
[30] = tested on: NCI/ADR-RES
[31] = tested on: OVCAR-3
[32] = tested on: OVCAR-4
[33] = tested on: OVCAR-5
[34] = tested on: OVCAR-8
[35] = tested on: PC-3
[36] = tested on: RXF 393
[37] = tested on: SF-268
[38] = tested on: SF-295
[39] = tested on: SF-539
[40] = tested on: SK-MEL-28
[41] = tested on: SK-MEL-2
[42] = tested on: SK-MEL-5
[43] = tested on: SK-OV-3
[44] = tested on: SN12C
[45] = tested on: SNB-19
[46] = tested on: SNB-75
[47] = tested on: SW-620
[48] = tested on: TK-10
[49] = tested on: U-251
[50] = tested on: UACC-257
[51] = tested on: UACC-62
[52] = tested on: UO-31
[53] = tested on: CAKI-1
[54] = tested on: KM12
[55] = tested on: MOLT-4
[56] = tested on: RPMI-8226
[57] = tested on: SR
[58] = tested on: EKVX
[59] = tested on: T47D

With `COc1cccc(N2CCc3c(C)c(C#N)c4nc5ccccc5n4c32)c1` the GI50 [1] was 58.3 µM (inactive), the GI50 [2] was > 100 µM (inactive) and the GI50 [3] was > 100 µM (inactive). The GI50 [4] was > 100 µM (inactive), the GI50 [5] was > 100 µM (inactive) and the GI50 [6] was > 100 µM (inactive). The GI50 [7] was > 100 µM (inactive), the GI50 [8] was > 100 µM (inactive) and the GI50 [9] was > 100 µM (inactive). The GI50 [10] was > 100 µM (inactive), the GI50 [11] was greater than 100 µM and the GI50 [12] was > 100 µM (inactive). For the same molecule, the GI50 [13] was > 100 µM (inactive), the GI50 [14] was 22.1 µM (inactive) and the GI50 [15] was > 100 µM (inactive). The GI50 [16] was 16.2 µM (inactive), the GI50 [17] was > 100 µM (inactive) and the GI50 [18] was > 100 µM (inactive). For the same molecule, the GI50 [19] was > 100 µM (inactive), the GI50 [20] was > 100 µM (inactive) and the GI50 [21] was > 100 µM (inactive). The GI50 [22] was 12.2 µM (inactive), the GI50 [23] was > 100 µM (inactive) and the GI50 [24] was > 100 µM (inactive). The GI50 [25] was > 100 µM (inactive), the GI50 [26] was > 100 µM (inactive) and the GI50 [27] was > 100 µM (inactive). The GI50 [28] was > 100 µM (inactive), the GI50 [29] was 15.3 µM (inactive) and the GI50 [30] was > 100 µM (inactive). For the same molecule, the GI50 [31] was > 100 µM (inactive), the GI50 [32] was > 100 µM (inactive) and the GI50 [33] was > 100 µM (inactive). The GI50 [34] was 41.4 µM (inactive), the GI50 [35] was > 100 µM (inactive) and the GI50 [36] was 45.1 µM (inactive). The GI50 [37] was 43.7 µM (inactive), the GI50 [38] was > 100 µM (inactive) and the GI50 [39] was 45.7 µM (inactive). For the same molecule, the GI50 [40] was > 100 µM (inactive), the GI50 [41] was 94.8 µM (inactive) and the GI50 [42] was > 100 µM (inactive). The GI50 [43] was 48.1 µM (inactive), the GI50 [44] was > 100 µM (inactive) and the GI50 [45] was 39.3 µM (inactive). For the same molecule, the GI50 [46] was 41.5 µM (inactive), the GI50 [47] was > 100 µM (inactive) and the GI50 [48] was > 100 µM (inactive). For the same molecule, the GI50 [49] was 53.6 µM (inactive), the GI50 [50] was > 100 µM (inactive) and the GI50 [51] was > 100 µM (inactive). The GI50 [52] was > 100 µM (inactive).
`Cc1cc(-c2nc3ccccc3s2)ccc1NS(=O)(=O)O` was tested, and the GI50 [1] was > 8.85 µM (inactive), the GI50 [2] was 65.9 µM (inactive) and the GI50 [3] was > 5.82 µM (inactive). For the same molecule, the GI50 [4] was > 7.78 µM (inactive), the GI50 [5] was 0.544 µM (active) and the GI50 [53] was > 7.21 µM (inactive). For the same molecule, the GI50 [6] was > 4.65 µM (inactive), the GI50 [7] was > 4.65 µM (inactive) and the GI50 [8] was > 22.2 µM (inactive). The GI50 [10] was > 4.65 µM (inactive), the GI50 [11] was greater than 4.65 µM and the GI50 [15] was > 4.65 µM (inactive). The GI50 [16] was > 6.28 µM (inactive), the GI50 [17] was 1.11 µM (active) and the GI50 [18] was 4.65 µM (inactive). The GI50 [54] was > 4.65 µM (inactive), the GI50 [19] was > 4.65 µM (inactive) and the GI50 [20] was > 29.5 µM (inactive). For the same molecule, the GI50 [21] was < 0.0382 µM (active), the GI50 [22] was > 24.1 µM (inactive) and the GI50 [23] was > 7.08 µM (inactive). For the same molecule, the GI50 [24] was > 6.04 µM (inactive), the GI50 [55] was 4.73 µM (inactive) and the GI50 [25] was > 6.56 µM (inactive). The GI50 [26] was > 39.9 µM (inactive), the GI50 [27] was > 7.11 µM (inactive) and the GI50 [30] was > 7.1 µM (inactive). For the same molecule, the GI50 [33] was > 4.65 µM (inactive), the GI50 [34] was > 4.85 µM (inactive) and the GI50 [56] was > 4.65 µM (inactive). For the same molecule, the GI50 [37] was > 9.64 µM (inactive), the GI50 [38] was > 43.1 µM (inactive) and the GI50 [39] was 0.0508 µM (active). The GI50 [40] was > 42 µM (inactive), the GI50 [42] was > 100 µM (inactive) and the GI50 [43] was > 33.5 µM (inactive). For the same molecule, the GI50 [44] was > 5.92 µM (inactive), the GI50 [45] was > 24.4 µM (inactive) and the GI50 [46] was > 67 µM (inactive). The GI50 [57] was 4.34 µM (inactive), the GI50 [47] was > 4.65 µM (inactive) and the GI50 [48] was > 26.1 µM (inactive). The GI50 [50] was > 6.43 µM (inactive), the GI50 [51] was > 12.2 µM (inactive) and the GI50 [52] was > 7.82 µM (inactive).
In the case of `CC(NC(=O)OC(C)(C)C)C(=O)NC(Cc1ccccc1)C(=O)NCC(=O)ON=C1CCCC1` (stereo not given), the GI50 [1] is reported as > 100 µM (inactive), the GI50 [2] is reported as > 100 µM (inactive) and the GI50 [3] is reported as > 100 µM (inactive). The GI50 [4] was > 100 µM (inactive), the GI50 [5] was > 100 µM (inactive) and the GI50 [53] was > 100 µM (inactive). For the same molecule, the GI50 [6] was 90.2 µM (inactive), the GI50 [7] was > 100 µM (inactive) and the GI50 [8] was > 100 µM (inactive). For the same molecule, the GI50 [58] was > 100 µM (inactive), the GI50 [9] was 89.7 µM (inactive) and the GI50 [10] was 72.8 µM (inactive). The GI50 [11] was greater than 100 µM, the GI50 [12] was > 100 µM (inactive) and the GI50 [13] was > 100 µM (inactive). For the same molecule, the GI50 [14] was > 100 µM (inactive), the GI50 [15] was > 100 µM (inactive) and the GI50 [17] was > 100 µM (inactive). The GI50 [18] was 43.6 µM (inactive), the GI50 [54] was 57.4 µM (inactive) and the GI50 [19] was > 100 µM (inactive). The GI50 [20] was 53.3 µM (inactive), the GI50 [21] was 63.1 µM (inactive) and the GI50 [22] was 43.5 µM (inactive). For the same molecule, the GI50 [23] was > 100 µM (inactive), the GI50 [24] was 35.6 µM (inactive) and the GI50 [55] was 41.9 µM (inactive). The GI50 [25] was > 100 µM (inactive), the GI50 [26] was > 100 µM (inactive) and the GI50 [27] was > 100 µM (inactive). The GI50 [28] was > 100 µM (inactive), the GI50 [29] was 32.7 µM (inactive) and the GI50 [30] was > 100 µM (inactive). For the same molecule, the GI50 [31] was > 100 µM (inactive), the GI50 [32] was > 100 µM (inactive) and the GI50 [33] was > 100 µM (inactive). For the same molecule, the GI50 [34] was > 100 µM (inactive), the GI50 [35] was > 100 µM (inactive) and the GI50 [56] was 97.5 µM (inactive). For the same molecule, the GI50 [36] was > 100 µM (inactive), the GI50 [37] was > 100 µM (inactive) and the GI50 [38] was > 100 µM (inactive). The GI50 [39] was > 100 µM (inactive), the GI50 [40] was > 100 µM (inactive) and the GI50 [41] was > 100 µM (inactive). For the same molecule, the GI50 [42] was > 100 µM (inactive), the GI50 [43] was > 100 µM (inactive) and the GI50 [44] was > 100 µM (inactive). The GI50 [45] was > 100 µM (inactive), the GI50 [46] was 93.1 µM (inactive) and the GI50 [57] was 31 µM (inactive). For the same molecule, the GI50 [47] was > 100 µM (inactive), the GI50 [59] was > 100 µM (inactive) and the GI50 [48] was > 100 µM (inactive). The GI50 [49] was 68.1 µM (inactive), the GI50 [50] was > 100 µM (inactive) and the GI50 [51] was > 100 µM (inactive). The GI50 [52] was 65.8 µM (inactive).
